The text below walks through data of patent US10934274B2, “Quinoline derivatives as TAM RTK inhibitors” (Qurient Co., Ltd., priority 2015, dated 2021).

The target in one test is T1, Mer (Homo sapiens, UniProt Q12866).
T1 construct: purchased Life Technologies
T1 sequence (Q12866 21-999): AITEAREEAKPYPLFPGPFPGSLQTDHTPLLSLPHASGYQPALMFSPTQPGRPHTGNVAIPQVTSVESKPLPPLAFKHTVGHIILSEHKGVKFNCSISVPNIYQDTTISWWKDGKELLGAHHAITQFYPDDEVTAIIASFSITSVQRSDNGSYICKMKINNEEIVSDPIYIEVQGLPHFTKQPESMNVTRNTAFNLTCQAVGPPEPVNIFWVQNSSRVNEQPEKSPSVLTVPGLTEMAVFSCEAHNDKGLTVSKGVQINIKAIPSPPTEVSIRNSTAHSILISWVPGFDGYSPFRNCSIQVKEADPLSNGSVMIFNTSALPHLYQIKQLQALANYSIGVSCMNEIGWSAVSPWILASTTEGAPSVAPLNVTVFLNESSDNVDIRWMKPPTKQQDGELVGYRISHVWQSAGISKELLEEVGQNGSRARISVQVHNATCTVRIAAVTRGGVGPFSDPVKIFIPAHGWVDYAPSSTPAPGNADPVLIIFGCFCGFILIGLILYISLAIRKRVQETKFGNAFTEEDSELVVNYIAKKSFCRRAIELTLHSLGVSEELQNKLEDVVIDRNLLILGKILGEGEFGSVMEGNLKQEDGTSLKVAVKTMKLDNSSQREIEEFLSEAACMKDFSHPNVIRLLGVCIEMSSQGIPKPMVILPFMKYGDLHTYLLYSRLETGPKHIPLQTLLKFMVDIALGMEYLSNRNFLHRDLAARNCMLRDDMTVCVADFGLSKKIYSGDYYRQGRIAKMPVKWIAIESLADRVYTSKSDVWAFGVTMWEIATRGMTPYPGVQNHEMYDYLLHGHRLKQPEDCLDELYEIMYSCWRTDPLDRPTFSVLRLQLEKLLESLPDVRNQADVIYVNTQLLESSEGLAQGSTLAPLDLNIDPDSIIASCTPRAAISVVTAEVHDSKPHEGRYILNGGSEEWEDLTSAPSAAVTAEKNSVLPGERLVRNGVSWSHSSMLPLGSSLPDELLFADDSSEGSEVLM
Kind of test: LanthaScreen Eu kinase binding assay, Mer. The note with it: Tracer 236. (In general: In TR-FRET formats the signal depends on donor and acceptor labels being close together.)

The next test has as its target T2, Axl (Homo sapiens, UniProt P30530).
T2 construct: purchased Life Technologies
T2 sequence (P30530 26-894): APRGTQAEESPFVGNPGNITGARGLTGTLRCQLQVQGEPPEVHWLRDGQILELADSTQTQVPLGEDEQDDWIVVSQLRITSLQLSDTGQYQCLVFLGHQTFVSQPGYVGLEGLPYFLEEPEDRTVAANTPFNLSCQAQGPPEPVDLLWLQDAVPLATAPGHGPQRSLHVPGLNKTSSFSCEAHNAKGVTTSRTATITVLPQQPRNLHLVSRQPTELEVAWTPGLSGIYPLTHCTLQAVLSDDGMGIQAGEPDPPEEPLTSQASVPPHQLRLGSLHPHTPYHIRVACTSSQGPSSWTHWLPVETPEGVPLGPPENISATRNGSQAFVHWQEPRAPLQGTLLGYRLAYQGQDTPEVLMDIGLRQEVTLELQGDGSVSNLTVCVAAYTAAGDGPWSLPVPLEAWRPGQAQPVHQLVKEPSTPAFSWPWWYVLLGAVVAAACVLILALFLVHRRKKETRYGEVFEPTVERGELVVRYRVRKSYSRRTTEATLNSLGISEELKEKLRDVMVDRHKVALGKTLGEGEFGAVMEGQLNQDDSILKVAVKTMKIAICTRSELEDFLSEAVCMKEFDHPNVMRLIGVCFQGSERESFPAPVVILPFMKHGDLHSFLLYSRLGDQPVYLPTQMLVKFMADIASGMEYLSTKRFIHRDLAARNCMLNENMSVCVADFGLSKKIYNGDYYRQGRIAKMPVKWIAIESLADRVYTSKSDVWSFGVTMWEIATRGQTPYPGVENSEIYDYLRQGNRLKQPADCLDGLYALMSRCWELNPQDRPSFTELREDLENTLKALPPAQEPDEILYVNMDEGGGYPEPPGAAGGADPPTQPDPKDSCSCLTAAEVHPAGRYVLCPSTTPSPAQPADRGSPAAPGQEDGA
Kind of test: LanthaScreen Eu kinase binding assay, Axl. The conditions noted are these: Tracer 236.

A word on the Kd: it is the concentration at which binding is half-saturated. As to `CCOc1cn(-c2cccnc2)nc1C(=O)Nc1ccc(Oc2ccnc3cc(OC(C)CC)c(OC)cc23)cn1` (stereo not drawn) [Compound 206], the Kd at Mer and on Axl was under 0.1 µM each time.
As for `CCOc1cn(-c2cnccc2CO)nc1C(=O)Nc1ccc(Oc2ccnc3cc(OC)c(OC)cc23)c(F)c1` [Compound 207], the Kd at Mer and on Axl was under 0.1 µM each time.
With `CCOc1cn(-c2cccnc2)nc1C(=O)Nc1ccc(Oc2ccnc3cc(OC(C)C)c(OC)cc23)cn1` [Compound 208], the dissociation constant Kd at Mer and on Axl was under 0.1 µM each time.
With `CCOc1cn(-c2cnccc2CO)nc1C(=O)Nc1ccc(Oc2ccnc3cc(OC)c(OC)cc23)cc1F` [Compound 209], the Kd on Mer and on Axl was under 0.1 µM in each case.
With `CCOc1cn(-c2cnccc2C)nc1C(=O)Nc1ccc(Oc2ccnc3cc(OC)c(OC)cc23)nn1` [Compound 210], the Kd on Mer and on Axl was under 0.1 µM in each case.
Regarding `CCOc1cn(C2CCCN(C)C2)nc1C(=O)Nc1ccc(Oc2ccnc3cc(OC)c(OC)cc23)cc1F` (stereo not drawn) [Compound 211], the dissociation constant Kd on Mer and on Axl was 0.1 to 1 µM each time.
